Data: US20210079443A1, “INDICATOR BAC[…] SELECTING AND […] EFFICACY OF THERAPEUTICS AND METHODS FOR USING SAME” (priority 2018, published 2021)

Key:
Assay in all cases: Phage-Mediated Detection of Staphylococcus aureus
Type in all cases: cell-based
[1] = test system: Staphylococcus aureus strain AR0489 (MSSA, CDC Panel)
Experimental: (§1) Samples of methicillin-resistant S. aureus (MRSA) were primed by adding 135 μl of samples containing S. aureus to rich media. The rich media included sub-inhibitory antibiotic (cefoxitin) to allow for specific enrichment and induction of MRSA. Samples were incubated in rich media for 1-2 hours. Following the priming of the samples, additional cefoxitin was added to the media and samples were incubated for an additional 2 hours. Staphylococcus aureus-specific bacteriophage NanoLuc Indicator phage was added to the samples and incubated for 2 hours. Lysis buffer and NANO-GLO® reagent were added. Following 5 minutes of incubation, measurements of bioluminescence were taken using a GLOMAX® 96 instrument. A signal/background ratio ≥750 RLU indicated positive detection of S. aureus. A signal/background ratio of <750 RLU indicated the sample was negative for S. aureus.

[2] = test system: Staphylococcus aureus strain AR0479 (MRSA, CDC Panel)
Experimental: as §1

[3] = test system: Staphylococcus aureus strain AR0467 (MRSA, CDC Panel)
Experimental: as §1

[4] = test system: Staphylococcus aureus strain BAA-2094 (MRSA, ATCC)
Experimental: as §1

[5] = test system: Staphylococcus aureus strain 12600 (MSSA, ATCC)
Experimental: as §1

[6] = test system: Staphylococcus aureus strain AR0480 (MRSA, CDC Panel)
Experimental: as §1

[7] = test system: Staphylococcus aureus strain AR0485 (MSSA, CDC Panel)
Experimental: as §1

[8] = test system: Staphylococcus aureus strain AR0472 (MRSA, CDC Panel)
Experimental: as §1

[9] = test system: Staphylococcus aureus strain AR0478 (MRSA, CDC Panel)
Experimental: as §1

[10] = test system: Staphylococcus aureus strain AR0469 (MRSA, CDC Panel)
Experimental: as §1

[11] = test system: Staphylococcus aureus strain AR0487 (MSSA, CDC Panel)
Experimental: as §1

[12] = test system: Staphylococcus aureus strain AR0483 (MRSA, CDC Panel)
Experimental: as §1

CO[C@@]1(NC(=O)Cc2cccs2)C(=O)N2C(C(=O)O)=C(COC(N)=O)CS[C@@H]21 [Cefoxitin, cefoxitin]
Cefoxitin Concentration 1 ug/mL (indicator phage luminescence signal) ([1]; detected CFU 144, cefoxitin 1 ug/mL): 30590 RLU | Cefoxitin Concentration 2 ug/mL (indicator phage luminescence signal) ([1]; detected CFU 144, cefoxitin 2 ug/mL): 188 RLU | Cefoxitin Concentration 4 ug/mL (indicator phage luminescence signal) ([1]; detected CFU 144, cefoxitin 4 ug/mL): 207 RLU | Cefoxitin Concentration 1 ug/mL (indicator phage luminescence signal) ([2]; detected CFU 52, cefoxitin 1 ug/mL): 51560 RLU | Cefoxitin Concentration 2 ug/mL (indicator phage luminescence signal) ([2]; detected CFU 52, cefoxitin 2 ug/mL): 34730 RLU | Cefoxitin Concentration 4 ug/mL (indicator phage luminescence signal) ([2]; detected CFU 52, cefoxitin 4 ug/mL): 6803 RLU | Cefoxitin Concentration 1 ug/mL (indicator phage luminescence signal) ([3]; detected CFU 171, cefoxitin 1 ug/mL): 9908 RLU | Cefoxitin Concentration 2 ug/mL (indicator phage luminescence signal) ([3]; detected CFU 171, cefoxitin 2 ug/mL): 6497 RLU | Cefoxitin Concentration 4 ug/mL (indicator phage luminescence signal) ([3]; detected CFU 171, cefoxitin 4 ug/mL): 4401 RLU | Cefoxitin Concentration 1 ug/mL (indicator phage luminescence signal) ([4]; detected CFU 147, cefoxitin 1 ug/mL): 252900 RLU | Cefoxitin Concentration 2 ug/mL (indicator phage luminescence signal) ([4]; detected CFU 147, cefoxitin 2 ug/mL): 96700 RLU | Cefoxitin Concentration 4 ug/mL (indicator phage luminescence signal) ([4]; detected CFU 147, cefoxitin 4 ug/mL): 1971 RLU | Cefoxitin Concentration 1.8 ug/mL (indicator phage luminescence signal) ([5]; detected CFU 59, cefoxitin 1.8 ug/mL): 508 RLU | Cefoxitin Concentration 1 ug/mL (indicator phage luminescence signal) ([5]; detected CFU 406, cefoxitin 1 ug/mL): 18310 RLU | Cefoxitin Concentration 2 ug/mL (indicator phage luminescence signal) ([5]; detected CFU 406, cefoxitin 2 ug/mL): 178 RLU | Cefoxitin Concentration 4 ug/mL (indicator phage luminescence signal) ([5]; detected CFU 406, cefoxitin 4 ug/mL): 196 RLU | Cefoxitin Concentration 1 ug/mL (indicator phage luminescence signal) ([6]; detected CFU 356, cefoxitin 1 ug/mL): 1038000 RLU | Cefoxitin Concentration 2 ug/mL (indicator phage luminescence signal) ([6]; detected CFU 356, cefoxitin 2 ug/mL): 430200 RLU | Cefoxitin Concentration 4 ug/mL (indicator phage luminescence signal) ([6]; detected CFU 356, cefoxitin 4 ug/mL): 127400 RLU | Cefoxitin Concentration 1 ug/mL (indicator phage luminescence signal) ([7]; detected CFU 190, cefoxitin 1 ug/mL): 13930 RLU | Cefoxitin Concentration 2 ug/mL (indicator phage luminescence signal) ([7]; detected CFU 190, cefoxitin 2 ug/mL): 236 RLU | Cefoxitin Concentration 4 ug/mL (indicator phage luminescence signal) ([7]; detected CFU 190, cefoxitin 4 ug/mL): 301 RLU | Cefoxitin Concentration 1.8 ug/mL (indicator phage luminescence signal) ([8]; detected CFU 14, cefoxitin 1.8 ug/mL): 2694 RLU | Cefoxitin Concentration 1 ug/mL (indicator phage luminescence signal) ([8]; detected CFU 142, cefoxitin 1 ug/mL): 72720 RLU | Cefoxitin Concentration 2 ug/mL (indicator phage luminescence signal) ([8]; detected CFU 142, cefoxitin 2 ug/mL): 19210 RLU | Cefoxitin Concentration 4 ug/mL (indicator phage luminescence signal) ([8]; detected CFU 142, cefoxitin 4 ug/mL): 240 RLU | Cefoxitin Concentration 1 ug/mL (indicator phage luminescence signal) ([9]; detected CFU 183, cefoxitin 1 ug/mL): 279700 RLU | Cefoxitin Concentration 2 ug/mL (indicator phage luminescence signal) ([9]; detected CFU 183, cefoxitin 2 ug/mL): 73090 RLU | Cefoxitin Concentration 4 ug/mL (indicator phage luminescence signal) ([9]; detected CFU 183, cefoxitin 4 ug/mL): 1519 RLU | Cefoxitin Concentration 1 ug/mL (indicator phage luminescence signal) ([10]; detected CFU 523, cefoxitin 1 ug/mL): 35110 RLU | Cefoxitin Concentration 2 ug/mL (indicator phage luminescence signal) ([10]; detected CFU 523, cefoxitin 2 ug/mL): 22030 RLU | Cefoxitin Concentration 4 ug/mL (indicator phage luminescence signal) ([10]; detected CFU 523, cefoxitin 4 ug/mL): 9007 RLU | Cefoxitin Concentration 1 ug/mL (indicator phage luminescence signal) ([11]; detected CFU 221, cefoxitin 1 ug/mL): 10420 RLU | Cefoxitin Concentration 2 ug/mL (indicator phage luminescence signal) ([11]; detected CFU 221, cefoxitin 2 ug/mL): 167 RLU | Cefoxitin Concentration 4 ug/mL (indicator phage luminescence signal) ([11]; detected CFU 221, cefoxitin 4 ug/mL): 188 RLU | Cefoxitin Concentration 1 ug/mL (indicator phage luminescence signal) ([12]; detected CFU 12, cefoxitin 1 ug/mL): 39250 RLU | Cefoxitin Concentration 2 ug/mL (indicator phage luminescence signal) ([12]; detected CFU 12, cefoxitin 2 ug/mL): 24390 RLU | Cefoxitin Concentration 4 ug/mL (indicator phage luminescence signal) ([12]; detected CFU 12, cefoxitin 4 ug/mL): 9081 RLU
